{
  "source": "patent US20210187014A1",
  "about": "(The Regents of the University of Colorado, a body corporate, priority 2018, published 2021)",
  "key": {"mice": {"system": "mice", "test": "Growth of mice fed control (iron-adequate) diet, Ent in drinking water", "type": "in vivo", "settings": "male mice, drinking water pH 5.5", "excerpt": "The present inventors treated 4.5-week male mice with the iron-adequate control diet (CD) described above, the matched control for the iron-deficient diet (IDD). As shown above in FIGS. 20 and 21, mice fed this diet had relative normal hemoglobin and iron levels. […] This experiment was incomplete because the hemoglobin and iron levels were not measured, which will be repeated."}, "[1]": {"system": "anemic mouse model (dietary anemia)", "test": "Anemic mouse model (dietary anemia), Ent in drinking water", "type": "in vivo", "settings": "male mice on iron-deficient diet, two weeks", "method": "The inventors fed 3-week old male mice an iron-deficient diet (IDD) (or control diet) for 5 weeks to induce anemia. They were then fed IDD +/− Ent added to the drinking water for two more weeks. Fresh dilutions of Ent in water were provided once per week. As generally shown in FIG. 21, mice continuously fed the iron-adequate control diet (CD) were included as the control. Hemoglobin level was measured by a Hemavet Blood Analyzer. Mean value±SD is shown."}, "C. elegans [2]": {"system": "C. elegans", "test": "Iron level in live worms by calcein-AM staining (and pftn-2::GFP reporter)", "type": "in vivo", "quoted_text": "The present inventors employed the commonly used fluorescent cell-permeable dye, calcein AM, of which emission is quenched by iron binding, and applied it to live worms as previously described to estimate the overall iron level in the host.\nLive imaging of iron in worms was done as previously described (James et al., 2015). Briefly, worms were collected at different culture conditions, then co-cultured in M9 with 0.05 ug/ML calcein-AM (Invitrogen) for 1 h, then washed 3 times in 1 ml M9. Samples were then mounted for fluorescence microscopy.\nFor calcein-AM staining, the original images taken with GFP channel were used to measure the intensity. The value of staining intensity was determined by subtracting the background intensity from the calcein-AM stained intestine."}, "germ-free (GF) mice": {"system": "germ-free (GF) mice", "test": "Growth of germ-free mice colonized with entF- E. coli, Ent in drinking water", "type": "in vivo", "settings": "GF female mice colonized with entF- E. coli, drinking water pH 5.5", "method": "As generally shown in FIG. 23, (A) Five-week old female germ-free (GF) mice were colonized with a single non-pathogenic E. coli (K12) strain, wild type or entF-(Ent-deficient E. coli). Mouse growth (weight gain) was measured for the following 4 weeks. […] Iron level was measured."}, "MEL cells": {"system": "MEL cells", "test": "Erythroid differentiation of MEL cells (color change of cell pellets)", "type": "cell-based, murine", "settings": "equimolar supplementation", "method": "FIG. 27. Ferric Enterobactin supplementation benefits differentiation of erythroid progenitor cells (MEL) to red blood cells. (FIG. 27A) MEL cells were grown with the indicated treatments. Cell pellets are shown. (FIG. 27B) Quantification of MEL color change presented as the average intensity of each cell pellet, normalized to the intensity of the control. Error bars are the standard deviation of three technical replicates.\nMEL cells are murine erythroid progenitor cells that are arrested at the proerythroblast stage. In the laboratory, these cells are induced to undergo erythroid differentiation to red blood cells by addition of various chemicals (e.g. 2% DMSO) (Friend, 1971). Erythroid differentiation is an iron-dependent process that results in a color change in the differentiated cells. The present inventors tested if addition of Fe-Ent would positively impact the differentiation of wild-type MEL cells to red blood cells."}, "mitochondria": {"system": "mitochondria", "test": "In vitro mitochondrial iron uptake assay, mitochondria purified from worms (55Fe)", "type": "biochemical, C. elegans", "settings": "purified mitochondria incubated with 55FeCl3 +/- Ent", "method": "Mitochondrial iron uptake assays. For the in vitro mitochondrial iron uptake assay, the present inventors modified a published procedure for analysis of mammalian cells (Devireddy et al., 2010). […] The samples were incubated for 4 hours at room temperature, and the amount of 55Fe in lysed mitochondria was determined by liquid scintillation."}, "HEK293T cells": {"system": "HEK293T cells", "test": "CAS staining of siderophore level in HEK293T cells", "type": "cell-based, human", "settings": "Ent supplemented to the culture medium"}, "[3]": {"system": "anemic mouse model (dietary anemia)", "test": "Anemic mouse model (dietary anemia), Ent by oral gavage", "type": "in vivo", "settings": "female mice on iron-deficient diet", "excerpt": "The inventors fed 3-week old female mice an iron-deficient diet (IDD) (or control diet) for 6 weeks to induce anemia (confirmed by hemoglobin measurement). […] As generally shown in FIGS. 20A-B, feeding IDD caused a drastic reduction of both hemoglobin and iron levels. […] A commercial kit (BioAssay system) was used to obtain hemoglobin level. Under normal conditions, ˜70% of the iron absorbed from the intestine is used to generate hemoglobin, and only a small percent may be stored in the liver or other somatic tissues if iron is in excess. Under anemic conditions, a great percentage of iron that has entered mitochondria (then bound to heme) may be funneled to erythropoiesis. Therefore, it was not unexpected to see little impact of Ent supplementation on liver iron level (iron storage)."}, "C. elegans [4]": {"system": "C. elegans", "test": "C. elegans larval growth assay: heat-killed E. coli plus trace live E. coli, worm volume", "type": "in vivo", "settings": "for worm growth with dietary supplementation: worms fed heat-killed E. coli plus live entA- or entF- mutant E. coli (Ent-deficient food)", "excerpt": "In one embodiment of the inventive technology, the present inventors created a unique assay to facilitate the identification of microbial metabolites that benefit growth and development of host animals. […] This unique feeding condition was used to search for E. coli mutants that fail to support normal worm growth, potentially due to their inability to provide specific metabolites to benefit host animals.\nE. coli Keio collection screen. Preparation of heat-killed (HK) OP50 plates followed the procedure described previously (Qi et al., 2017). Standard overnight culture of E. coli OP50 grown in LB broth was concentrated to 1/10 vol and was then heat-killed in a 75° C. water bath for 90 min. The 150 µl of the HK-OP50 was spread onto one side of NGM plate. For preparation of bacterial mutant assay plates, E. coli Keio (Baba et al., 2006) mutants were grown overnight at 37° C. in LB medium with […] kanamycin. 0.2 uL of the bacterial culture (OD600) were seeded to the other side of HK OP50 plate. About 300 synchronized L1 worms were added to the screen plate, and cultured at 20° C., then scored for worm size at day 3 and day 4. The entire library was used for the primary screen; each bacterial mutant was screened once. For the secondary screen, 200 candidate mutants were screened (3 replicates) to confirm the slow growth phenotype.\nChemical supplementation of culture plates. For chemical supplementation, each chemical was dissolved in water or DMSO to generate a stock. The stock solution was added to HK OP50 and then spotted onto NGM plates. […] For CaEDTA supplementation (Kiang et al., 2014), 50 ul of CaEDTA (50 ug/ul) was spread onto the center of the NGM plates seeded with OP50, then different volume of the FeCl3[175 ug/ul] […] Bacterial growth analyses. Overnight cultures were diluted to a final OD600=0.01 in 200 μL of NGM liquid medium. Bacteria were grown in 96-well plates with shaking in a Synergy2 plate reader (BioTek) at 37° C. for 17 h. The OD600 was recorded at 20 min intervals.\nAnalysis of larval growth by measuring worm size. Synchronized L1 worms were seeded on the indicated NGM plate and grew to the indicated times. Photos were taken and worms volume in each photo were measured by WormSizer software (Moore et al., 2013)."}},
  "data": [
    {"compound": "O=C(N[C@H]1COC(=O)[C@@H](NC(=O)c2cccc(O)c2O)COC(=O)[C@@H](NC(=O)c2cccc(O)c2O)COC1=O)c1cccc(O)c1O", "note": "[Ent, enterobactin]", "values": [
      {"measurement": "growth rate (weight gain)", "setting": "mice", "value": "increased growth rate"},
      {"measurement": "hemoglobin level", "setting": "[1]", "value": "significantly improved"},
      {"measurement": "iron level gain with Ent supplementation", "setting": "C. elegans [2]; atp-1 RNAi, entF- mutant bacteria", "value": "eliminated the iron level gain"},
      {"measurement": "iron level in worms (calcein AM and pftn-2::GFP)", "setting": "C. elegans [2]; growth-arrested worms fed heat-killed E. coli only", "value": "such a defect was suppressed"},
      {"measurement": "iron level and growth rate defects", "setting": "C. elegans [2]; iron-deficient condition, worms treated with CaEDTA", "value": "both defects were suppressed"},
      {"measurement": "iron level in worms (calcein AM fluorescence)", "setting": "C. elegans [2]; worms fed entA- or entF- mutant bacteria with heat-killed E. coli", "value": "recovered"},
      {"measurement": "amount of FeCl3 (175 ug/ul) with equivalent effect on calcein-AM fluorescence decrease", "setting": "C. elegans [2]; worms treated with CaEDTA", "value": 10, "unit": "µL"},
      {"measurement": "iron level increase attributed to Ent-mediated iron uptake", "setting": "C. elegans [2]; worms treated with CaEDTA", "value": "≥ 10", "unit": "fold"},
      {"measurement": "growth (weight gain)", "setting": "germ-free (GF) mice", "value": "overcomes growth delay"},
      {"measurement": "MEL differentiation to red blood cells", "setting": "MEL cells", "value": "decrease in differentiation"},
      {"measurement": "increase in 55Fe level in mitochondria", "setting": "mitochondria", "value": 10, "unit": "fold"},
      {"measurement": "entry into cells (CAS staining, siderophore level)", "setting": "HEK293T cells", "value": "can enter"},
      {"measurement": "iron level in the spleen", "setting": "[3]; oral gavage", "value": "increased in the spleen"},
      {"measurement": "hemoglobin level", "setting": "[3]; oral gavage once every two days for two weeks", "value": "partially but significantly recovered"},
      {"measurement": "rescue of worm growth by Ent supplementation", "setting": "C. elegans [4]; RNAi of atp-1 (not ctl-2)", "value": "prevented the rescue of worm growth"},
      {"measurement": "worm growth", "setting": "C. elegans [4]; ferric chloride added to live wild-type E. coli, with heat-killed E. coli", "value": "this growth defect was suppressed"},
      {"measurement": "worm growth with dietary supplementation", "setting": "C. elegans [4]", "value": "completely overcome"},
      {"measurement": "worm growth with dietary supplementation", "setting": "C. elegans [4]; listed as Enterobactin", "value": "recovers the growth defect seen with entF-"},
      {"measurement": "development of worms", "setting": "C. elegans [4]; worms fed only heat-killed bacteria", "value": "did not result in any appreciable effect"}
    ]}
  ]
}
